This note sets out measurements from patent US20240131007A1, “METHODS AND COMPOSITIONS FOR PICORNAVIRUS ANTI-VIRAL AGENTS” (University of Connecticut, priority 2022, published 2024).

Read-outs that look alike come from different tables or passages of the source.

As a reminder, the IC50 is the concentration that inhibits the measured activity by half.

In data set [1] the test system is EV-A71. Nature of the data set: CPE inhibition assay (Cell Titer Glo) against EV-A71 in Vero cells. The class given is cell-based, Enterovirus A71. Conditions: for IC50: Enterovirus A, EVA71, EV-A71, Vero cells; for Selectivity Index: CC50/IC50. Background: ATP-based viability assays read luminescence as a measure of living cells.
The nature of data set [2]: in vitro. Conditions: African green monkey, CC50 (μM).
[3] abbreviates: Table 10, Scaffold 1, read-out: IC50.
The mark [4] stands for this setting: Table 8, virus-induced CPE, read-out: IC50.

Consider `CC(=O)Nc1ccc(-c2nc3ccccc3[nH]2)cc1` [Compound 1, N-[4-(1H-benzimidazol-2-yl)phenyl]acetamide], for which the IC50 in data set [1] (setting [3]) was greater than 25 µM. In data set [2], this compound registered a CC50 at 3 days greater than 400 µM.
With `O=C(Nc1ccc(-c2nc3ccccc3[nH]2)cc1)C1CC1` [Compound 2, N-[4-(1H-benzimidazol-2-yl)phenyl]cyclopropanecarboxamide], in data set [1] (setting [3]), the half-maximal inhibitory concentration (IC50) is 39.3 µM. In data set [1] (Table 10, Scaffold 1), the “Selectivity Index” value is 3.77. Besides, the CC50 at 3 days in data set [2] stood at 148 µM.
`CC(=O)Nc1ccc(C(=O)Nc2ccc(-c3nc4ccccc4[nH]3)cc2)cc1` [Compound 3, 4-(acetylamino)-N-[4-(1H-benzimidazol-2-yl)phenyl]benzamide]: the IC50 in data set [1] (setting [3]) is greater than 25 µM. Besides, the CC50 at 3 days in data set [2] is greater than 400 µM.
Consider `CC(=O)Oc1ccc(C(=O)Nc2ccc(-c3nc4ccccc4[nH]3)cc2)cc1` [Compound 4, 4-({[4-(1H-benzimidazol-2-yl)phenyl]amino}carbonyl)phenyl acetate], for which the IC50 in data set [1] (setting [3]) worked out at 34.2 µM. For the same compound, the “Selectivity Index” value in data set [1] (Table 10, Scaffold 1) is on record as 3.49. The CC50 at 3 days in data set [2] is 119 µM.
On to `Cc1ccc2[nH]c(-c3ccc(NC(=O)CCC(=O)O)cc3)nc2c1` [Compound 5, 4-{[4-(5-methyl-1H-benzimidazol-2-yl)phenyl]amino}-4-oxobutanoic acid], for which, in data set [1] (setting [3]), the IC50 is greater than 25 µM. Moreover, the CC50 at 3 days in data set [2] was greater than 400 µM.
For `O=C(Nc1ccc(-c2nc3ccccc3[nH]2)cc1)c1ccccc1` [Compound 6, N-[4-(1H-benzimidazol-2-yl)phenyl]benzamide], the IC50 in data set [1] (setting [3]) is 30.8 µM. For the same compound, the “Selectivity Index” value in data set [1] (Table 10, Scaffold 1) turned out to be 0.45. This compound also yielded a CC50 at 3 days in data set [2] of 13.7 µM.
As to `O=C(Cc1ccccc1)Nc1ccc(-c2nc3ccccc3[nH]2)cc1` [Compound 7, N-[4-(1H-benzimidazol-2-yl)phenyl]-2-phenylacetamide], the IC50 in data set [1] (setting [3]) was greater than 25 µM. In data set [2], this compound came in with a CC50 at 3 days greater than 400 µM.
Consider `O=C(Nc1ccc(-c2nc3ccccc3[nH]2)cc1)c1ccccn1` [Compound 8, N-[4-(1H-benzimidazol-2-yl)phenyl]-2-pyridinecarboxamide], for which, in data set [1] (setting [4]), the IC50 was found to be 1.46 µM. Besides, the “Selectivity Index” value in data set [1] (Table 8) came out at 167.19; in data set [1] (Table 10, Scaffold 1), 167.19. For the same compound, in data set [2], the CC50 at 3 days was 244 µM.
`O=C(Nc1ccc(-c2nc3ccccc3[nH]2)cc1)c1cccs1` [Compound 10, N-[4-(1H-benzimidazol-2-yl)phenyl]-2-thiophenecarboxamide]: the IC50 in data set [1] (setting [4]) worked out at 5 µM. The “Selectivity Index” value was determined as 42.06 in data set [1] (Table 8) and 42.06 in data set [1] (Table 10, Scaffold 1). The CC50 at 3 days in data set [2] amounted to 210 µM.
For `O=C(Nc1ccc(-c2nc3ccccc3[nH]2)cc1)c1ccc(Br)o1` [Compound 11, N-[4-(1H-benzimidazol-2-yl)phenyl]-5-bromo-2-furamide], in data set [1] (setting [3]), the IC50 stood at 252 µM. Further, in data set [1] (Table 10, Scaffold 1), the “Selectivity Index” value was 6.54. In addition, the CC50 at 3 days in data set [2] came out at 1650 µM.
Take `O=C(Nc1ccc(-c2nc3ccccc3[nH]2)cc1)c1ccccc1F` [Compound 13, N-[4-(1H-benzimidazol-2-yl)phenyl]-2-fluorobenzamide]: the IC50 in data set [1] (setting [3]) was greater than 25 µM. In data set [2], this compound registered a CC50 at 3 days of 98.1 µM.
The like results for `O=C(Nc1ccc(-c2nc3ccccc3[nH]2)cc1)c1ccc(F)cc1` [Compound 14, N-[4-(1H-benzimidazol-2-yl)phenyl]-4-fluorobenzamide] were, in that order, greater than 25 µM and 133 µM.
For `O=C(Nc1ccc(-c2nc3ccccc3[nH]2)cc1)c1cccc(F)c1` [Compound 15, N-[4-(1H-benzimidazol-2-yl)phenyl]-3-fluorobenzamide], the IC50 in data set [1] (setting [3]) was greater than 25 µM. This compound showed a CC50 at 3 days in data set [2] of 29.2 µM.
With `O=C(Nc1ccc(-c2nc3ccccc3[nH]2)cc1)C1CCCC1` [Compound 17, N-[4-(1H-benzimidazol-2-yl)phenyl]cyclopentanecarboxamide], the IC50 in data set [1] (setting [3]) was 13.4 µM. The “Selectivity Index” value in data set [1] (Table 10, Scaffold 1) came to 19.91. Further, the CC50 at 3 days in data set [2] stood at 266 µM.
Turning to `O=C(Nc1ccc(-c2nc3ccccc3[nH]2)cc1)c1ccc(N2CCOCC2)c([N+](=O)[O-])c1` [Compound 18, N-[4-(1H-benzimidazol-2-yl)phenyl]-4-(4-morpholinyl)-3-nitrobenzamide], the IC50 in data set [1] (setting [3]) was greater than 25 µM. The CC50 at 3 days in data set [2] amounted to 11.1 µM.
Consider `O=C(Nc1ccc(-c2nc3ccccc3[nH]2)cc1)c1cc([N+](=O)[O-])ccc1N1CCOCC1` [Compound 19, N-[4-(1H-benzimidazol-2-yl)phenyl]-2-(4-morpholinyl)-5-nitrobenzamide], for which the IC50 in data set [1] (setting [3]) stood at 7.28 µM. Besides, the “Selectivity Index” value in data set [1] (Table 10, Scaffold 1) is given as 287.50. Further, the CC50 at 3 days in data set [2] is 2090 µM.
As to `O=C(CSCc1ccc([N+](=O)[O-])cc1)Nc1ccc(-c2nc3ccccc3[nH]2)cc1` [Compound 21, N-[4-(1H-benzimidazol-2-yl)phenyl]-2-[(4-nitrobenzyl)thio]acetamide], the IC50 in data set [1] (setting [3]) is greater than 25 µM. In addition, the CC50 at 3 days in data set [2] was greater than 400 µM.
The corresponding values for `O=C(Nc1ccc(-c2nc3ccccc3[nH]2)cc1)c1ccc(-c2cccc([N+](=O)[O-])c2)o1` [Compound 23, N-[4-(1H-benzimidazol-2-yl)phenyl]-5-(3-nitrophenyl)-2-furamide] are greater than 25 µM and 1.14 µM.
Take `O=C(Cc1cccc2ccccc12)Nc1ccc(-c2nc3ccccc3[nH]2)cc1` [Compound 24, N-[4-(1H-benzimidazol-2-yl)phenyl]-2-(1-naphthyl)acetamide]: in data set [1] (setting [3]), the IC50 amounted to 8.34 µM. Further, in data set [1] (Table 10, Scaffold 1), the “Selectivity Index” value stood at 7.05. In data set [2], this compound had a CC50 at 3 days of 58.8 µM.
The corresponding values for `O=C(Nc1ccc(-c2nc3ccccc3[nH]2)cc1)c1ccc(-c2ccc(Cl)cc2)o1` [Compound 26, N-[4-(1H-benzimidazol-2-yl)phenyl]-5-(4-chlorophenyl)-2-furamide] are 5.7 µM, 7.77 and 44.3 µM.
The corresponding values for `O=C(Nc1ccc(-c2nc3ccccc3[nH]2)cc1)c1ccc(-c2cccc(Cl)c2)o1` [Compound 27, N-[4-(1H-benzimidazol-2-yl)phenyl]-5-(3-chlorophenyl)-2-furamide] are 5.85 µM, 11.56 and 67.6 µM.
The like results for `CC(=O)Nc1ccc(-c2nc3cc(C)ccc3[nH]2)cc1` [Compound 29, N-[4-(5-methyl-1H-benzimidazol-2-yl)phenyl]acetamide] were, in that order, 69.3 µM, greater than 5.77 and greater than 400 µM.
For the compound `CC(=O)Nc1ccc(-c2nc3ccc(Cl)cc3[nH]2)cc1` [Compound 30, N-[4-(6-chloro-1H-benzimidazol-2-yl)phenyl]acetamide], the IC50 in data set [1] (setting [3]) was greater than 25 µM. The CC50 at 3 days in data set [2] is greater than 400 µM.
Consider `Cc1ccc2[nH]c(-c3ccc(NC(=O)C4CC4)cc3)nc2c1` [Compound 31, N-[4-(5-methyl-1H-benzimidazol-2-yl)phenyl]cyclopropanecarboxamide], for which the IC50 in data set [1] (setting [3]) is 9.6 µM. Further, the “Selectivity Index” value in data set [1] (Table 10, Scaffold 1) is listed as greater than 41.67. For the same compound, in data set [2], the CC50 at 3 days is greater than 400 µM.
As to `CCC(=O)Nc1ccc(-c2nc3ccc(Cl)cc3[nH]2)cc1` [Compound 32, N-[4-(6-chloro-1H-benzimidazol-2-yl)phenyl]propanamide], the IC50 in data set [1] (setting [3]) was greater than 25 µM. Further, in data set [2], the CC50 at 3 days is greater than 400 µM.
With `Cc1ccc2[nH]c(-c3ccc(NC(=O)C(C)C)cc3)nc2c1` [Compound 33, 2-methyl-N-[4-(5-methyl-1H-benzimidazol-2-yl)phenyl]propanamide], in data set [1] (setting [3]), the IC50 amounted to 11.8 µM. For the same compound, the “Selectivity Index” value in data set [1] (Table 10, Scaffold 1) is 39.46. In addition, the CC50 at 3 days in data set [2] was 468 µM.
For the compound `Cc1ccc2[nH]c(-c3ccc(NC(=O)C(F)(F)F)cc3)nc2c1` [Compound 34, 2,2,2-trifluoro-N-[4-(5-methyl-1H-benzimidazol-2-yl)phenyl]acetamide], the IC50 in data set [1] (setting [3]) was greater than 25 µM. The compound further registered a CC50 at 3 days in data set [2] of 618 µM.
The like results for `Cc1ccc2[nH]c(-c3ccc(NC(=O)COc4ccccc4)cc3)nc2c1` [Compound 38, N-[4-(5-methyl-1H-benzimidazol-2-yl)phenyl]-2-phenoxyacetamide] were, in that order, greater than 25 µM and greater than 400 µM.
The like results for `Cc1ccc2[nH]c(-c3ccc(NC(=O)Cc4ccccc4)cc3)nc2c1` [Compound 39, N-[4-(5-methyl-1H-benzimidazol-2-yl)phenyl]-2-phenylacetamide] were, in that order, greater than 25 µM and greater than 400 µM.
The like results for `Cc1ccc(OCC(=O)Nc2ccc(-c3nc4cc(C)ccc4[nH]3)cc2)cc1` [Compound 41, N-[4-(5-methyl-1H-benzimidazol-2-yl)phenyl]-2-(4-methylphenoxy)acetamide] were, in that order, greater than 25 µM and greater than 400 µM.
Take `O=C(c1ccccc1)c1ccc2[nH]c(-c3ccc(NC(=O)c4ccco4)cc3)nc2c1` [Compound 45, N-[4-(5-benzoyl-1H-benzimidazol-2-yl)phenyl]-2-furamide]: in data set [1] (setting [4]), the IC50 stood at 4.71 µM. In addition, the “Selectivity Index” value in data set [1] (Table 8) was determined as 12.56; in data set [1] (Table 10, Scaffold 1) it was 12.56. This compound gave a CC50 at 3 days in data set [2] of 59.1 µM.
`CC(=O)Nc1ccc(-c2nc3cc4ccccc4cc3[nH]2)cc1` [Compound 47, N-[4-(1H-naphtho[2,3-d]imidazol-2-yl)phenyl]acetamide]: in data set [1] (setting [4]), the IC50 was 4.22 µM. For the same compound, the “Selectivity Index” value in data set [1] (Table 8) was 113.08; in data set [1] (Table 11, Scaffold 2), 113.08. This compound also showed a CC50 at 3 days in data set [2] of 477 µM.
For the compound `O=C(CCc1ccccc1)Nc1ccc(-c2nc3cc4ccccc4cc3[nH]2)cc1` [Compound 49, N-[4-(1H-naphtho[2,3-d]imidazol-2-yl)phenyl]-3-phenylpropanamide], the IC50 in data set [1] (Table 11, Scaffold 2, read-out: IC50) is 22.1 µM. Also, in data set [1] (Table 11, Scaffold 2), the “Selectivity Index” value was determined as 6.99. For the same compound, in data set [2], the CC50 at 3 days was found to be 154 µM.
As for `CCCCOc1cc(C(=O)NCCN(CC)CC)c2ccccc2n1` [Dibucaine, reference compound], in data set [1] (read-out: IC50 for inhibition of virus-induced CPE), the IC50 was determined as 4.5 µM.
